According to patent publication US11084826B2, “RSV antiviral pyrazolo- and triazolo-pyrimidine compounds” (Janssen Sciences Ireland Unlimited Company, priority 2015, dated 2021):

Columns and labels:
[1] = Cytotoxicity in HeLa cells, ATP content measured with the ATPlite kit; type: cell-based; settings: human, TOX HELA pCC50
Method: (§1) Black 384-well clear-bottom microtiter plates (Corning, Amsterdam, The Netherlands) were filled via acoustic drop ejection using the echo liquid handler (Labcyte, Sunnyvale, Calif.). 200 nL of compound stock solutions (100% DMSO) were transferred to the assay plates. 9 serial 4-fold dilutions of compound were made, creating per quadrant the same compound concentration. The assay was initiated by adding 10 μL of culture medium to each well (RPMI medium without phenol red, 10% FBS-heat inactivated, 0.04% gentamycin (50 mg/mL). All addition steps are done by using a multidrop dispenser (Thermo Scientific, Erembodegem, Belgium). Next, rgRSV224 virus (MOI=1) diluted in culture medium was added to the plates. rgRSV224 virus is an engineered virus that includes an additional GFP gene (Hallak LK, Spillmann D, Collins PL, Peeples Me. Glycosaminoglycan sulfation requirements for respiratory syncytial virus infection; Journal of virology (2000), 74(22), 10508-13) and was in-licensed from the NIH (Bethesda, Md., USA). Finally, 20 μL of a HeLa cell suspension (3,000 cells/well) were plated. Medium, virus- and mock-infected controls were included in each test. The wells contain 0.05% DMSO per volume. Cells were incubated at 37° C. in a 5% CO2 atmosphere. Three days post-virus exposure, viral replication was quantified by measuring GFP expression in the cells by an in house developed MSM laser microscope (Tibotec, Beerse, Belgium). The EC50 was defined as the 50% inhibitory concentration for GFP expression. In parallel, compounds were incubated for three days in a set of white 384-well microtiter plates (Corning) and the cytotoxicity of compounds in HeLa cells was determined by measuring the ATP content of the cells using the ATPlite kit (Perkin Elmer, Zaventem, Belgium) according to the manufacturer's instructions. The CC50 was defined as the 50% concentration for cytotoxicity.

[2] = tested on: rgRSV224 virus; assay: Antiviral activity: inhibition of rgRSV224 (GFP-expressing RSV) replication in HeLa cells, GFP expression read-out; type: cell-based, respiratory syncytial virus (RSV); settings: human respiratory syncytial virus, HeLa, read-out: RSV HELA pEC50, rgRSV224 virus (MOI=1) in HeLa cells, GFP read-out (converted)
Method: as §1

SMILES | CC50 at 3 days [1] [nM] | EC50 [2] [nM] | melting point [°C]
CCc1cc(C(=O)N2CCCCCC2C)nc2cc(-c3ccc4c(c3)ncn4C)nn12 (stereo not drawn) [Compound A14] | > 25100 | 398 | 115
CCc1cc(C(=O)N2CCCCCCC2C)nc2cc(-c3ccccc3F)nn12 (stereo not drawn) [Compound A18] | > 100000 | 355 | 125 to 130
CCc1cc(C(=O)N2CCCCCC2C)nc2cc(-c3ccc(CO)cc3)nn12 (stereo not drawn) [Compound A21] | > 100000 | 891 | 155 to 160
CCc1cc(C(=O)N2CCCCCC2C)nc2cc(-c3cc4cccnc4cc3F)nn12 (stereo not drawn) [Compound A24] | > 25100 | 302 | 145 to 150
CCc1cc(C(=O)N2CCCCCC2C)nc2cc(-c3ccc(C(N)=O)cc3)nn12 (stereo not drawn) [Compound A25] | > 100000 | 550 | 155 to 160
CCc1cc(C(=O)N2CCCCC[C@H]2C)nc2cc(-c3ccc(C(N)=O)cc3)nn12 [Compound A26] | > 25100 | 195 | 160 to 165
CCc1cc(C(=O)N2CCCC[C@H]2C)nc2cc(-c3ccc(C(N)=O)cc3)nn12 [Compound A27] | > 25100 | 871 | 160 to 165
CCCC(C)N(C)C(=O)c1cc(CC)n2nc(-c3ccc(C(N)=O)cc3)cc2n1 (stereo not drawn) [Compound A28] | > 25100 | 794 | 140 to 145
CCc1cc(C(=O)N2CCCCCCC2C)nc2cc(-c3ccc(C(N)=O)cc3)nn12 (stereo not drawn) [Compound A29] | > 25100 | 155 | 170 to 175
CCc1cc(C(=O)N2CCCCCC2C)nc2cc(-c3ccc(NC(=O)NCC4CCCO4)cc3F)nn12 (stereo not drawn) [Compound B1] | > 100000 | 129 | 140
CCCC(C)N(C)C(=O)c1cc(CC)n2nc(-c3ccc(NC(=O)NCC4CCCO4)cc3F)cc2n1 (stereo not drawn) [Compound B2] | > 100000 | 407 | 180 to 185
CCc1cc(C(=O)N2CCCCCCC2C)nc2cc(-c3ccc(NC(=O)NCC4CCCO4)cc3F)nn12 (stereo not drawn) [Compound B3] | > 25100 | 79.4 | 195 to 200
CCc1cc(C(=O)N2CCCCCC2C)nc2cc(-c3ccc(NC(=O)NCC4CCCO4)cc3C)nn12 (stereo not drawn) [Compound B4] | 55000 | 257 | 123
CCc1cc(C(=O)N2CCCCCC2C)nc2cc(-c3ccc(NC(=O)NCC4CCCO4)cc3)nn12 (stereo not drawn) [Compound B5] | > 100000 | 166 | 205
CCc1cc(C(=O)N2CCCCCC2C)nc2cc(-c3ccc(NC(=O)Nc4cccc(F)c4)cc3)nn12 (stereo not drawn) [Compound B6] | > 100000 | 741 | 260 to 265
CCc1cc(C(=O)N2CCCCC2C)nc2cc(-c3ccc(NC(=O)NCC4CCCO4)cc3)nn12 (stereo not drawn) [Compound B7] | > 100000 | 631 | 175 to 180
CCc1cc(C(=O)N2CCCCCC2C)nc2cc(-c3ccc(NC(=O)NC4CC4)cc3)nn12 (stereo not drawn) [Compound B8] | 17000 | 240 | 240 to 245
CCc1cc(C(=O)N2CCCCCC2C)nc2cc(-c3ccc(NC(=O)NCC4CC4)cc3)nn12 (stereo not drawn) [Compound B9] | > 100000 | 501 | 165 to 170
CC1CCCCCN1C(=O)c1cc(N2CCCC2)n2nc(-c3ccc(NC(=O)NCC4CCCO4)cc3)cc2n1 (stereo not drawn) [Compound B10] | > 100000 | 316 | 228 to 230
CC1CCCCCN1C(=O)c1cc(N2CCCCC2)n2nc(-c3ccc(NC(=O)NCC4CCCO4)cc3)cc2n1 (stereo not drawn) [Compound B11] | > 100000 | 282 | 168 to 171
CC1CCCCCN1C(=O)c1cc(N(C)C2CCCCC2)n2nc(-c3ccc(NC(=O)NCC4CCCO4)cc3)cc2n1 (stereo not drawn) [Compound B12] | > 100000 | 191 | 181 to 182
